“Also recorded” adds a separate entry of the source.
Columns and labels:
[1] = system: OC1-AML5 cell line; experiment: Cell viability (trypan blue) and proliferation (alamar blue) with FLT-3 ligand; type: cell-based; details: trypan blue and alamar blue assays
Description: The first cell line used was the OC1-AML5 cell line known to express the FLT-3 tyrosine kinase. This cell line was maintained in conventional medium containing cytokines to maintain growth in liquid culture. This cell line provides a model to assess activation and inhibition of FLT-3 signaling by FLT-3 ligand and compounds which may inhibit FLT-3. The biological consequences of FLT-3 can be assessed with this cell line.
The OC1-AML5 cell line which express FLT-3-wild type was obtained (Pharmacia).

[2] = target: T1, FLT-3 (Homo sapiens, UniProt P36888); experiment: FLT-3 ligand stimulated FLT-3 phosphorylation in OC1-AML5 cells; type: cell-based; details: FLT-3 ligand stimulated OC1-AML5 cells
T1 construct: The OC1-AML5 cell line which express FLT-3-wild type was obtained (Pharmacia); host or cells: OC1-AML5
T1 sequence (P36888 27-993): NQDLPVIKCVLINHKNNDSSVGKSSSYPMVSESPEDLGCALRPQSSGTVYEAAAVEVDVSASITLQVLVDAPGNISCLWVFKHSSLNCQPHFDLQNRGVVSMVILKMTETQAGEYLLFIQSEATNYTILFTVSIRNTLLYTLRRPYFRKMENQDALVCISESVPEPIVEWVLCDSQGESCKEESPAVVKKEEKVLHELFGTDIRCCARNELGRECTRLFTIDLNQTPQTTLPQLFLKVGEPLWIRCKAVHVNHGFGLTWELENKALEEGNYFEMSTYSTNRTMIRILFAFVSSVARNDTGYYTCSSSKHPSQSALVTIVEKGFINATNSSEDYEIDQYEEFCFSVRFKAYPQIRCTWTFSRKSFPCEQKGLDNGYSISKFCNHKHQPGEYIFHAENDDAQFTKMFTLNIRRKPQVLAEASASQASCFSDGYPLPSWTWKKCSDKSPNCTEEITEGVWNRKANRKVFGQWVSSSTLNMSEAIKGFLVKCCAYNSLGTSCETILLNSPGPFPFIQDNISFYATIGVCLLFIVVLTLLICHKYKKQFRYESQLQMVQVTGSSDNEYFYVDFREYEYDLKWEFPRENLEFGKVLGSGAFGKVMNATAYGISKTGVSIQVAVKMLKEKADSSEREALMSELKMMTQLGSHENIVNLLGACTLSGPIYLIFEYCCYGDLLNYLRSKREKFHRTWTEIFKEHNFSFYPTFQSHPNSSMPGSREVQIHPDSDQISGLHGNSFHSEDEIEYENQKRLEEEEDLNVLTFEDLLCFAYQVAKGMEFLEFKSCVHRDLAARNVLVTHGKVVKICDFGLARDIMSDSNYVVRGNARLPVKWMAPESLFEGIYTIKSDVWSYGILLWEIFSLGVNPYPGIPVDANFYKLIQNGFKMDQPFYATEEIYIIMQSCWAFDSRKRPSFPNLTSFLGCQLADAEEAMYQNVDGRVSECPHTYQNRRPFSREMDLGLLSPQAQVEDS
Description: Cells were stimulated with FLT-3 ligand and lysed. FLT-3 was immunoprecipitated from lysates with a commercially available antibody. Proteins were separated by SDS-polyacrylamide gel electrophoresis, transferred to membranes and analyzed by Western blotting for phosphotyrosine and subsequently for total FLT-3 protein as control.

[3] = system: erk½; experiment: erk½ phosphorylation in OC1-AML5 cells; type: cell-based
Description: Activation of downstream pathways by FLT-3 ligand was also investigated, specifically for Stat5 and erk. Stat5 and Erk are downstream mediators of RTK signaling, and may provide readouts for FLT-3 signaling. Stat 5 is a transcription factor which regulates many genes involves in cell survival and proliferation. Erk½ are kinases on the Raf signaling pathway.

[4] = system: RS411 (wild type FLT-3); experiment: Cell proliferation, RS411; type: cell-based
[5] = system: MV411 (ITD mutant FLT-3); experiment: Cell proliferation, MV411; type: cell-based
[6] = system: FLT-3-ITD; experiment: FLT-3 phosphorylation in resected xenograft tumors; type: in vivo, athymic mice; details: 4 hour treatment
Description: Tumor cells, MV411 in the example shown were implanted subcutaneously in the hindflank of athymic mice. […] For measurement of efficacy, tumor growth was measured at various subsequent time points using vernier calipers. For analysis of phosphorylation, tumors were resected following dosing (4 hours here), pulverized in liquid nitrogen and homogenized in lysis buffer. FLT-3 and Stat5 phosphorylation were measured by immunoprecipitation and Western blot analysis.
Athymic mice were injected subcutaneously with MV411 and RS411 cells to cause tumor formation.

[7] = system: MV4; 11; experiment: VEGF production, MV4;11 cells; type: cell-based; details: for VEGF %: 0 uM = 100
[8] = system: VEGF; experiment: Plasma VEGF by ELISA; type: in vivo; details: plasma of NOD-SCID mice
Description: At experimental endpoints, mice were anesthetized, followed by terminal blood collection via intracardiac puncture. Bone marrow cell suspensions were prepared by flushing mouse femurs with cold, sterile PBS. For all studies, a paired Student's t test was used to assess differences between treated and control groups (P<0.05 was considered significant).
Plasma from the NOD-SCID mice described above was analyzed by ELISA for VEGF protein levels using a commercially available kit.

CCN(CC)CCNC(=O)c1c(C)[nH]c(/C=C2\C(=O)Nc3ccc(F)cc32)c1C [Compound 1, 5-(5-Fluoro-2-oxo-1,2-dihydro-indol-3-ylidenemethyl)-2,4-dimethyl-1H-pyrrole-3-carboxylic acid(2-diethylamino-ethyl)-amide]
inhibition of FLT-3 ligand increased cell numbers [1]: some inhibition
FLT-3 phosphorylation [2]: decreased
IL-3 dependent erk activation ([3]; IL-3 dependent): not inhibited
Phosphorylation of erk½ ([3]; activated by FLT-3 ligand): inhibited
expansion of RS411 [4]: inhibited expansion
expansion of MV411 [5]: inhibited expansion
activated FLT-3 in tumors [6]: completely inhibited; also recorded: inhibits
VEGF mean sd ([7]; CMPD 1 0.00 uM): 287.8
VEGF % ([7]; CMPD 1 0.00 uM): 83.0%
VEGF mean sd ([7]; CMPD 1 0.01 uM): 65.4
VEGF % ([7]; CMPD 1 0.01 uM): 18.9%
VEGF mean sd ([7]; CMPD 1 0.1 uM): 31.2
VEGF % ([7]; CMPD 1 0.1 uM): 9.0%
VEGF mean sd ([7]; CMPD 1 1 uM): 30.5
VEGF % ([7]; CMPD 1 1 uM): 8.8%
VEGF mean sd ([7]; CMPD 1 10 uM): 23.3
VEGF % ([7]; CMPD 1 10 uM): 6.7%
VEGF in plasma (mean) [8]: 49 pg/mL
